Assay results: a melting point compilation (Tetko et al.; mined from patent text by program, amines drawn as free bases though some values may be those of a salt)

SMILES	melting point
CC(=S)NC[C@H]1CN(c2ccc(-c3nc(Cn4cccn4)cs3)c(F)c2)C(=O)O1	166 to 168 °C
COc1cccc2c(=O)[nH]c(-c3cc(C)c(OCCN4CCCC4)c(C)c3)nc12	231 to 232 °C
COc1cc(O)c([N+](=O)[O-])c2ccccc12	128 to 130 °C
CC(Oc1ccccc1)C(=O)NCCCCn1cnc2c(N)nc3ccccc3c21 (stereo unspecified)	85 to 87.5 °C
CCCCCCCCCCCCCCCCCCOc1ccc(N(CC(=O)O)C(=O)OC(C)(C)C)cc1	89 to 92.5 °C
Nc1cc(N2CCCCC2)ccc1[N+](=O)[O-]	100 to 101 °C
CCOC(=O)CNc1cc(Cl)nc(Cl)n1	89 to 91 °C
Cc1c(C)c2c(c(C)c1C=O)OC(C)(C)C2	93 °C
COc1ccc(N2CCN(C(=S)C3(C)CCc4c(C)c(O)c(C)c(C)c4O3)CC2)cc1 (stereo unspecified)	120 to 121 °C
CCOC(=O)/C(=N\O[C@H]1CCC[C@@H](C)C1)c1csc(N)n1 (relative stereo)	91 to 93 °C
O=C(O)CC[C@H]1O[C@@H](c2ccccc2Cl)c2cc(Cl)ccc2N(Cc2ccccc2)C1=O (relative stereo)	135 to 137 °C
Cc1ccc2c(c1)N=C(N1CCN(C)CC1)c1cccc3c1N2CC3	160 to 162 °C
OCc1cnc(C(O)c2cc(F)ccc2F)c(F)c1 (stereo unspecified)	94 to 96 °C
COc1cc2nc(-c3n[nH]cc3NC(=O)N(C)C)[nH]c2cc1Cl	> 300 °C
Cc1cc(-c2ccc(S(N)(=O)=O)cc2)n(-c2ccc(Cl)cc2)c1	171 to 173 °C
CCCCNC(=O)Nc1ccc(OCC)cc1C(=O)NCC1CCN(C(c2ccccc2)c2ccccc2)CC1	191 to 193 °C
CCc1cccc(C)c1CNc1cc(OC)nc2c1nc(C)n2C	165 to 166 °C
CCCCCCSc1sc(-c2cc[nH]n2)c2c1C(=O)CC(C)(C)C2	134 to 137 °C
COC(=O)CCS(=O)(=O)c1cc(C(C)(C)C)c(O)c(C(C)(C)C)c1	109 to 111 °C
C(=C\C1CCCCC1)/c1nc2ccccc2n1-c1ccccn1	105 to 106 °C
CCCCCCCCC1CC(c2ccc(-c3ccc(CCCCC)cc3)cc2)OC1=O (stereo unspecified)	114 to 118 °C
COc1cc(Nc2c(C#N)cnc3cc(C#CCCN4CCOCC4)c(OC)cc23)c(Cl)cc1Cl	140 to 142 °C
COC(=O)N1CCC(C(C(N)=O)(c2ccc(F)cc2)c2ccc(F)cc2)CC1	126 to 129 °C
CCOC(=O)C1=C(C)NN=C(c2ccccc2)C1c1ccccc1 (stereo unspecified)	130 °C

SMILES	melting point
COC(=O)C1=CC(=O)CC(c2ccc(Cl)cc2)N1 (stereo unspecified)	113 to 114 °C
c1ccc2c(c1)CCc1c-2noc1N1CCNCC1	97 to 99 °C
O=C1COc2ccccc2C(=O)C1=CNc1ccccc1	94 to 96 °C
N#CN=C(Nc1ccccc1)Nc1ccc(C#N)cc1O	270 to 271 °C
Cc1ccc(NC(=O)c2cc(Cl)ccc2NCC2CCN(C3CCCC3)CC2)nc1	150 to 152 °C
Cn1ncc2[nH]c3ccc(-c4cccc(O)c4)cc3c(=O)c21	> 250 °C
OC1CSC(Oc2ccccc2-c2cccnc2)C(O)C1O (stereo unspecified)	195 °C
Nc1c(Cl)cc(C(F)(F)F)c(Cl)c1Cl	37 to 39 °C
c1ccc2nc3c(nc2c1)OCC1CCCN31 (single isomer, unassigned; (+))	121 to 123 °C
CC(C)C1(C)NC(c2ccc(CO)cn2)=NC1=O (stereo unspecified)	101 to 104 °C
O=C(Nc1nccs1)c1c(C(F)(F)F)nc2ccccc2c1O	> 280 °C
CN1Cc2ccccc2C(=O)c2cc(CC(=O)O)cc(Br)c21	164 to 167 °C
COc1cc(OCCN2CCCCC2)ccc1/C=C/c1cc(/C=C/c2ccc3cc[nH]c3c2)n[nH]1	150 to 155 °C
O=S(=O)(c1ccc(Cl)cc1)C(c1cc(F)ccc1F)c1cc(N2CCCS2(=O)=O)ncc1Cl (stereo unspecified)	219 to 221 °C
COC(=O)CC(C)(C)C(C)(C)S(=O)(=O)c1ccc(C)cc1	90 °C
CCCCCCCCCCC#Cc1csc(CC(CO)NC(C)=O)c1 (stereo unspecified)	55 to 58 °C
Cn1c(C(F)(F)F)cc(=O)n(-c2cc(OCCCl)c(Cl)cc2F)c1=O	100 to 103 °C
COc1cc(CC(=O)Nc2cnn(Cc3c(C)noc3C)c2)cc(OC)c1O	187 to 188 °C
O=c1c(CO)c(-c2ccc(O)cc2)oc2ccccc12	234 to 235 °C
CC(=O)N1CCC(CCC(=O)c2cc3c4c(c2)CC(=O)N4CCC3)CC1	119 to 120 °C
COC(=O)c1ccc2[nH]c(/C=C/c3ccc(OC)c(OC)c3)nc2c1	185 to 188 °C
C=C(CC)C(=O)c1ccc(OC(C)(C)C(=O)O)c(Cl)c1Cl	88 to 89 °C
CC(Cc1c[nH]c2ccccc12)(NC(=O)OC1C2CC3CC(C2)CC1C3)C(=O)NCC(=NOCC(=O)O)c1ccccc1 (stereo unspecified)	138 to 142 °C
COc1cc2c(c3c1OC(C)(C)C3)C(c1cccnc1)=NC(C)(C)C2	113 to 114 °C

SMILES	melting point
CSC1NC(=O)N(C)C(=O)N1N=C(C)C (stereo unspecified)	130 to 132 °C
COC(=O)COc1ccc2cc3c(c(-c4ccc(OC)cc4)c2c1)CNC3=O	202 to 203 °C
Cc1nc2ccc(C(=O)NS(=O)(=O)c3ccccc3)nc2n1Cc1ccc(C(=O)O)cc1Cl	155 to 160 °C
Nc1nc(-c2ccc(CCN3CCN(c4cccc5ccccc45)CC3)cc2)cs1	274 to 277 °C
COCC1OC(n2cnc3c(N)ncnc32)C(O)C1O (stereo unspecified)	112 to 114 °C
CCN1C(C(=O)Nc2cncc(Cl)n2)=C(O)c2ccccc2S1(=O)=O	233 to 235 °C
Cc1nc(-c2ccc(C(F)(F)F)cc2)sc1COc1ccc(CC(=O)O)cc1Cl	126 to 127 °C
Cc1cc(C)cc(C(=O)N2CCN(C(=O)CNC3CN4CC3CC4Cc3ccccc3)C(c3ccc(Cl)c(Cl)c3)C2)c1 (stereo unspecified)	69 to 71 °C
O=c1[nH]c(=O)n(C2CC(OCc3ccccc3)C(COCc3ccccc3)C2O)cc1I (stereo unspecified)	165 °C
CC(=O)Nc1ccc2c(c1)Cc1c(-c3ccccc3)n[nH]c1-2	275 to 276 °C
CC1CCC2(C(=O)O)CCC3(C)C(=CCC4C5(C)CC(O)C(O)C(C)(CO)C5CCC43C)C2C1C (stereo unspecified)	300 to 310 °C
OC1CC=C(c2ccc(C(F)(F)F)cc2)CC1 (stereo unspecified)	104 to 106 °C
NC(Cc1c[nH]c2c(Cl)cccc12)C(=O)O (stereo unspecified)	236 to 239 °C
O=C(NC(Nc1c(Nc2cccnc2)c(=O)c1=O)C(F)(F)C(F)(F)F)c1cccc(Cl)c1 (stereo unspecified)	212 to 213 °C
Cn1c(CCC#Cc2cccc(CF)n2)nc2ccccc21	95.3 to 96.3 °C
COCCOc1cc(/C=C/C(=O)O)n(Cc2ccc(Cl)cc2Cl)n1	171 to 172 °C
O=C(Nc1nccs1)C1C(=O)Sc2cc(Cl)ccc21 (stereo unspecified)	276 to 289 °C
C=C1CCC2C3Cc4ccc(O)cc4C2(CCN3CC2CC2)C1 (stereo unspecified)	220 to 223 °C
O=C(NCCCCCC1CCSS1)c1ccccc1 (stereo unspecified)	58 to 59 °C
COc1ccc2ncc(CO)c(OC(C)C)c2c1	66 to 68 °C
COC(=O)c1ccc(C2C(C(=O)c3ccc(OC)cc3)=C(O)C(=O)N2c2nnc(C)s2)cc1 (stereo unspecified)	255 to 257 °C
CC(Cc1c[nH]c2ccccc12)NC(=O)C=C1CCC(c2cccc(F)c2)(N(C)C)CC1 (stereo unspecified)	163 to 166 °C
Cc1c(C)c(NC(=O)CC(C)(C)C)c2c(c1C)C(c1ccc(C(C)C)cc1)CO2 (stereo unspecified)	190 to 191 °C
